Measurements reported in ChEMBL document CHEMBL1201862, “PubChem BioAssay data set” (2004).
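In this assay, cells in 96-well plates receive the compound at five concentrations for 48 hours. Endpoints are linearly interpolated between the surrounding concentrations. GI50 is the concentration that inhibits growth by half.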 Calls of active or inactive are those of the source. Cut-off read from the data, not from the text of the source: active = GI50 up to about 1.1 µM and inactive = higher.

Tests used:
Experiment in all cases: NCI anticancer screen, dose series, 48 h
M14 = system: M14
HOP-62 = system: HOP-62
OVCAR-4 = system: OVCAR-4
SK-MEL-2 = system: SK-MEL-2
HOP-92 = system: HOP-92
KM12 = system: KM12
SNB-19 = system: SNB-19
RXF 393 = system: RXF 393
SF-268 = system: SF-268
NCI-H226 = system: NCI-H226
NCI/ADR-RES = system: NCI/ADR-RES
HCC 2998 = system: HCC 2998
OVCAR-3 = system: OVCAR-3
SF-295 = system: SF-295
BT-549 = system: BT-549
MCF7 = system: MCF7
NCI-H23 = system: NCI-H23
NCI-H460 = system: NCI-H460
Malme-3M = system: Malme-3M
NCI-H522 = system: NCI-H522

Row | Structure (SMILES) | GI50 (M14) | GI50 (HOP-62) | GI50 (OVCAR-4) | GI50 (SK-MEL-2) | GI50 (HOP-92) | GI50 (KM12) | GI50 (SNB-19) | GI50 (RXF 393) | GI50 (SF-268) | GI50 (NCI-H226) | GI50 (NCI/ADR-RES) | GI50 (HCC 2998) | GI50 (OVCAR-3) | GI50 (SF-295) | GI50 (BT-549) | GI50 (MCF7) | GI50 (NCI-H23) | GI50 (NCI-H460) | GI50 (Malme-3M) | GI50 (NCI-H522)
1 | Cc1ccsc1/C=N/Nc1nc2ccccc2s1 | 28.1 µM (inactive) | 8.99 µM (inactive) | 19.7 µM (inactive) | 26.2 µM (inactive) | 13.4 µM (inactive) | 24.2 µM (inactive) | 12.8 µM (inactive) | 6.27 µM (inactive) | 21.4 µM (inactive) | 19.4 µM (inactive) | 21.4 µM (inactive) | 63.2 µM (inactive) | 12.9 µM (inactive) | 10.6 µM (inactive) | 71.3 µM (inactive) | 11.5 µM (inactive) | 31.8 µM (inactive) |  |  | 
2 | Cc1cc(C)c(C)c(-n2[nH]c(=O)n(C)c2=O)c1C | > 100 µM (inactive) | > 100 µM (inactive) |  | > 100 µM (inactive) | > 100 µM (inactive) | > 100 µM (inactive) | > 100 µM (inactive) |  | > 100 µM (inactive) | > 100 µM (inactive) | > 100 µM (inactive) |  | > 100 µM (inactive) | > 100 µM (inactive) | > 100 µM (inactive) | > 100 µM (inactive) | > 100 µM (inactive) | > 100 µM (inactive) |  | 
3 | O=C(O)CN1CCNCCNCC1 | > 100 µM (inactive) | > 100 µM (inactive) | > 100 µM (inactive) | > 100 µM (inactive) | > 100 µM (inactive) | 59.6 µM (inactive) | > 100 µM (inactive) |  |  | > 100 µM (inactive) | > 100 µM (inactive) |  | > 100 µM (inactive) |  | > 100 µM (inactive) | > 100 µM (inactive) |  | > 100 µM (inactive) |  | 
4 | COc1cc(C2C3=C(CCCC3=O)N(c3ccc(C)cc3)C3=C2C(=O)CCC3)c([N+](=O)[O-])cc1OC | > 100 µM (inactive) |  | 45.4 µM (inactive) |  | 52 µM (inactive) | > 100 µM (inactive) | > 100 µM (inactive) | 30 µM (inactive) | 97.5 µM (inactive) | 76.9 µM (inactive) | > 100 µM (inactive) | > 100 µM (inactive) | 96.2 µM (inactive) |  | > 100 µM (inactive) | 39.4 µM (inactive) | > 100 µM (inactive) | > 100 µM (inactive) |  | 
5 | COC(=O)c1c(O)ccc2c1c1c(n2Cc2ccccn2)C(=O)c2ccccc2C1 | > 100 µM (inactive) | > 100 µM (inactive) | 19.4 µM (inactive) | 75 µM (inactive) |  | > 100 µM (inactive) | > 100 µM (inactive) | 31.6 µM (inactive) | 74.5 µM (inactive) | > 100 µM (inactive) | 44.4 µM (inactive) |  | > 100 µM (inactive) | > 100 µM (inactive) | > 100 µM (inactive) | 22.9 µM (inactive) | > 100 µM (inactive) | 50.2 µM (inactive) | > 100 µM (inactive) | 
6 | COc1cc(N(Cc2ccc3nc(OC)c(OC)nc3c2)Cc2ccc3nc(OC)c(OC)nc3c2)cc(OC)c1OC | > 50 µM (inactive) | 1.3 µM (inactive) | > 50 µM (inactive) | 20.9 µM (inactive) |  | > 50 µM (inactive) | 14.9 µM (inactive) | 10.7 µM (inactive) | 32.1 µM (inactive) | > 50 µM (inactive) | > 50 µM (inactive) |  | 31.5 µM (inactive) | 19.6 µM (inactive) | 6.78 µM (inactive) | 32.9 µM (inactive) | > 50 µM (inactive) |  | > 50 µM (inactive) | > 50 µM (inactive)
7 | CCOC(=O)c1[nH]c2cccc3c2c1CC(Br)C3=O (stereo unspecified) | 13.4 µM (inactive) | 19 µM (inactive) |  |  | 16.7 µM (inactive) | 15.8 µM (inactive) | 15.7 µM (inactive) |  | 15.6 µM (inactive) | 17.4 µM (inactive) | 15.3 µM (inactive) | 14.7 µM (inactive) | 13.2 µM (inactive) | 17.2 µM (inactive) | 16.9 µM (inactive) | 22.5 µM (inactive) | 17.6 µM (inactive) | 22.3 µM (inactive) | 14.5 µM (inactive) | 
8 | Clc1ccc(CNc2nc(Cl)c3nc[nH]c3n2)cc1Cl | 20.8 µM (inactive) | 27.4 µM (inactive) | 35.4 µM (inactive) | 22.3 µM (inactive) |  | 29.2 µM (inactive) | 34 µM (inactive) | 30.9 µM (inactive) | 25.4 µM (inactive) | 21.9 µM (inactive) | 15.8 µM (inactive) | 19.8 µM (inactive) | 18.9 µM (inactive) | 20 µM (inactive) | 24.2 µM (inactive) | 18 µM (inactive) | 22.4 µM (inactive) | 28.2 µM (inactive) | 26.4 µM (inactive) | 11.3 µM (inactive)
9 | NS(=O)(=O)c1nnc(NS(=O)(=O)c2ccc(F)cc2)s1 | > 100 µM (inactive) | > 100 µM (inactive) | > 100 µM (inactive) | > 100 µM (inactive) | > 100 µM (inactive) | > 100 µM (inactive) | > 100 µM (inactive) | > 100 µM (inactive) | > 100 µM (inactive) | > 100 µM (inactive) | > 100 µM (inactive) | > 100 µM (inactive) | > 100 µM (inactive) | > 100 µM (inactive) | > 100 µM (inactive) | > 100 µM (inactive) | > 100 µM (inactive) | > 100 µM (inactive) |  | 
10 | N#Cc1c(-c2ccccc2)[nH]c(=O)n(C2OC(CO)C(O)C(O)C2O)c1=O (stereo unspecified) | > 100 µM (inactive) | > 100 µM (inactive) | > 100 µM (inactive) | > 100 µM (inactive) | > 100 µM (inactive) | > 100 µM (inactive) | > 100 µM (inactive) | > 100 µM (inactive) | > 100 µM (inactive) |  | > 100 µM (inactive) | > 100 µM (inactive) | > 100 µM (inactive) | > 100 µM (inactive) | > 100 µM (inactive) | > 100 µM (inactive) | > 100 µM (inactive) | > 100 µM (inactive) |  | 
11 | CC/C=N\N1C(N)=C(C#N)C(C#N)(C#N)C1CC (stereo unspecified) | > 100 µM (inactive) | > 100 µM (inactive) | 91.2 µM (inactive) | > 100 µM (inactive) |  | > 100 µM (inactive) | > 100 µM (inactive) | > 100 µM (inactive) | > 100 µM (inactive) | > 100 µM (inactive) | 92 µM (inactive) | > 100 µM (inactive) | > 100 µM (inactive) | > 100 µM (inactive) | > 100 µM (inactive) | 36.5 µM (inactive) | > 100 µM (inactive) |  | > 100 µM (inactive) | > 100 µM (inactive)
12 | COc1ccc(NC(=S)c2ccc(CN3CCCCC3)s2)cc1 | 16.7 µM (inactive) | 20.6 µM (inactive) | 29 µM (inactive) | 19.4 µM (inactive) |  | 17.7 µM (inactive) | 21.3 µM (inactive) |  | 18 µM (inactive) |  | 23 µM (inactive) | 16.6 µM (inactive) | 33.6 µM (inactive) | 18.3 µM (inactive) | 17 µM (inactive) | 17 µM (inactive) | 12.5 µM (inactive) | 17.5 µM (inactive) | 17.5 µM (inactive) | 14.8 µM (inactive)
13 | NC(=O)c1nnc2c(F)cccc2c1N | > 100 µM (inactive) | > 100 µM (inactive) | > 100 µM (inactive) | > 100 µM (inactive) |  | > 100 µM (inactive) | > 100 µM (inactive) |  | > 100 µM (inactive) | 46.6 µM (inactive) | > 100 µM (inactive) | 93.1 µM (inactive) | > 100 µM (inactive) | > 100 µM (inactive) | 58.9 µM (inactive) | 40 µM (inactive) | > 100 µM (inactive) | 72.1 µM (inactive) | > 100 µM (inactive) | 21.9 µM (inactive)
14 | CC(=O)C12C[C@](C#N)(N3CCCCCC3)C1C=Cc1ccccc12 (stereo partly specified) | > 100 µM (inactive) | > 100 µM (inactive) | > 100 µM (inactive) |  |  | > 100 µM (inactive) | > 100 µM (inactive) | > 100 µM (inactive) | > 100 µM (inactive) | > 100 µM (inactive) | > 100 µM (inactive) | > 100 µM (inactive) | > 100 µM (inactive) | > 100 µM (inactive) | > 100 µM (inactive) | > 100 µM (inactive) | > 100 µM (inactive) | > 100 µM (inactive) |  | > 100 µM (inactive)
15 | CC1(C)CC(O)C(C)(C)[C@@H](O)C1 (stereo partly specified) | > 100 µM (inactive) | > 100 µM (inactive) | > 100 µM (inactive) | > 100 µM (inactive) |  | > 100 µM (inactive) | > 100 µM (inactive) | 28.7 µM (inactive) | > 100 µM (inactive) | > 100 µM (inactive) | > 100 µM (inactive) | > 100 µM (inactive) |  | > 100 µM (inactive) | > 100 µM (inactive) | > 100 µM (inactive) | > 100 µM (inactive) | > 100 µM (inactive) | > 100 µM (inactive) | > 100 µM (inactive)
16 | CC(=O)O[C@H]1C(=O)[C@@]2(C)[C@H]([C@H](OC(=O)c3ccccc3)[C@]3(O)C[C@H](OC(=O)[C@H](O)[C@@H](NC(=O)OC(C)(C)C)c4ccco4)C(C)=C1C3(C)C)[C@]1(OC(C)=O)CO[C@@H]1C[C@@H]2O | 0.0794 µM (active) | 0.00804 µM (active) | 4.18 µM (inactive) | 0.00723 µM (active) | 7.23 µM (inactive) | < 0.005 µM (active) | 0.00971 µM (active) | 0.00899 µM (active) | < 0.005 µM (active) |  | 0.0185 µM (active) | < 0.005 µM (active) | 0.00769 µM (active) | 0.00687 µM (active) | < 0.005 µM (active) | < 0.005 µM (active) | 0.00966 µM (active) | < 0.005 µM (active) | 6.61 µM (inactive) | < 0.005 µM (active)
